{
  "source": "patent US5091299A",
  "about": "“An enzyme electrode for use in organic solvents” (priority 1987, dated 1992)",
  "key": {"[1]": {"test_system": "Polyphenol oxidase (tyrosinase)", "assay": "Electrode specificity, response of the enzyme electrode to ten phenols", "type": "biochemical", "settings": "phenol 100 μM, single electrode, chloroform"}, "[2]": {"test_system": "Polyphenol oxidase (tyrosinase)", "assay": "Storage stability of the enzyme electrode, response to p-cresol", "settings": "p-cresol 200 μM"}, "[3]": {"test_system": "Polyphenol oxidase (tyrosinase)", "assay": "Calibration of the polyphenol oxidase enzyme electrode with p-cresol in chloroform", "settings": "after addition of p-cresol, -275 mV vs SCE"}, "[4]": {"test_system": "Polyphenol oxidase (tyrosinase)", "assay": "Operational stability of the enzyme electrode, sixteen consecutive p-cresol assays", "settings": "p-cresol 100 μM"}, "[5]": {"settings": "room temp. (20° C.), stored dry"}, "[6]": {"settings": "room temp. (20° C.), stored in CHCl3"}},
  "note": "Values joined by “and” are separate entries in the source; they are usually repeats but may differ in a detail not shown here. Equal entries are not always repeated.",
  "data": [
    {"smiles": "Oc1ccccc1O", "note": "[catechol]", "values": [
      {"measurement": "Electrode response", "setting": "[1]", "value": 8.6, "unit": "μA"}
    ]},
    {"smiles": "O=Cc1ccc(O)cc1", "note": "[p-hydroxy-benzaldehyde]", "values": [
      {"measurement": "Electrode response", "setting": "[1]", "value": 0.0, "unit": "μA"},
      {"measurement": "whether the electrode responded", "setting": "[1]", "value": "responded to all the phenols tested except"}
    ]},
    {"smiles": "Cc1ccc(O)cc1", "note": "[p-cresol]", "values": [
      {"measurement": "Electrode response", "setting": "[1]", "value": 5.6, "unit": "μA"},
      {"measurement": "Initial response", "setting": "[2]; 5° C., stored dry", "value": "4.3 μA and 3.7 μA"},
      {"measurement": "Response after 3 days", "setting": "[2]; 5° C., stored dry", "value": "4.4 μA and 4.5 μA"},
      {"measurement": "Response after 48 days", "setting": "[2]; 5° C., stored dry", "value": "4.7 μA and 3.5 μA"},
      {"measurement": "Initial response", "setting": "[2]; 5° C., stored in CHCl3", "value": "4.8 μA and 3.8 μA"},
      {"measurement": "Response after 3 days", "setting": "[2]; 5° C., stored in CHCl3", "value": "8.1 μA and 9.5 μA"},
      {"measurement": "Response after 48 days", "setting": "[2]; 5° C., stored in CHCl3", "value": "10.0 μA and 7.6 μA"},
      {"measurement": "decrease in response", "setting": "[2]; electrodes stored at 5° C.", "value": "no significant decrease"},
      {"measurement": "average loss of activity (of the response)", "setting": "[2]; electrodes stored at room temperature, after three days", "value": 30, "unit": "%"},
      {"measurement": "Initial response", "setting": "[2]; [5]", "value": "5.2 μA and 4.8 μA"},
      {"measurement": "Response after 3 days", "setting": "[2]; [5]", "value": "6.8 μA and 5.4 μA"},
      {"measurement": "Response after 48 days", "setting": "[2]; [5]", "value": "3.6 μA and 2.8 μA"},
      {"measurement": "Initial response", "setting": "[2]; [6]", "value": "4.0 μA and 4.2 μA"},
      {"measurement": "Response after 3 days", "setting": "[2]; [6]", "value": "7.0 μA and 7.2 μA"},
      {"measurement": "Response after 48 days", "setting": "[2]; [6]", "value": "5.5 μA and 6.5 μA"},
      {"measurement": "time for the current increase to reach a steady value", "setting": "[3]", "value": "3 to 5", "unit": "min"},
      {"measurement": "Electrode response after the first three assays", "setting": "[4]", "value": 4.0, "unit": "μA"},
      {"measurement": "Electrode response, first assay", "setting": "[4]; start of series of sixteen assays", "value": 1.9, "unit": "μA"},
      {"measurement": "Electrode response over the next eleven assays", "setting": "[4]; started to fall after assay fourteen", "value": "remained stable"}
    ]},
    {"smiles": "Nc1ccc(O)cc1", "note": "[p-aminophenol]", "values": [
      {"measurement": "Electrode response", "setting": "[1]", "value": 2.4, "unit": "μA"}
    ]},
    {"smiles": "Cc1ccc(O)c(O)c1", "note": "[4-methylcatechol]", "values": [
      {"measurement": "Electrode response", "setting": "[1]", "value": 6.7, "unit": "μA"}
    ]},
    {"smiles": "Oc1ccccc1", "note": "[phenol]", "values": [
      {"measurement": "Electrode response", "setting": "[1]", "value": 6.4, "unit": "μA"}
    ]},
    {"smiles": "Cc1cccc(O)c1", "note": "[m-cresol]", "values": [
      {"measurement": "Electrode response", "setting": "[1]", "value": 4.7, "unit": "μA"}
    ]},
    {"smiles": "Oc1ccc(Cl)cc1", "note": "[4-chlorophenol]", "values": [
      {"measurement": "Electrode response", "setting": "[1]", "value": 3.1, "unit": "μA"}
    ]},
    {"smiles": "Cc1ccccc1O", "note": "[o-cresol]", "values": [
      {"measurement": "Electrode response", "setting": "[1]", "value": 0.0, "unit": "μA"},
      {"measurement": "whether the electrode responded", "setting": "[1]", "value": "responded to all the phenols tested except"}
    ]},
    {"smiles": "O=Cc1cccc(O)c1", "note": "[m-hydroxy-benzaldehyde]", "values": [
      {"measurement": "Electrode response", "setting": "[1]", "value": 0.0, "unit": "μA"},
      {"measurement": "whether the electrode responded", "setting": "[1]", "value": "responded to all the phenols tested except"}
    ]}
  ]
}
